Experiments:
[1] = molecular target: T1, PDE5 (Homo sapiens, UniProt O76074); test: Reporter cell assay: LS-174T cells expressing PKG2 and PDE5, low-dose linaclotide, phospho-VASP Western blot; type: cell-based; details: LS-174T reporter cells
T1 construct: host or cells: LS-174T colon cancer reporter cell line
From the text: Results shown are representative of at least 3 independent experiments.
Western blot and reporter cell lines. […] Results shown are representative of at least 3 independent experiments.

[2] = tested on: colon epithelium; test: Epithelial proliferation in the colon by flow cytometry using Ki67; type: in vivo; details: mice, drug in drinking water 8 days; control 21%
Protocol: Toxicity studies and histology. […] The body weight was measured daily. After 8 days the animals were sacrificed and the epithelial proliferation in the colon was measured by flow cytometry using Ki67. Box plots show median and whiskers are min and max values. The p values were generated using a one-way ANOVA with Dunnett's multiple comparisons test. For FIGS. 5A and 5C, n=5.

[3] = mouse, in vivo

Molecule: acetyl-sildenafil
- potency of PDE5 inhibitor activity relative to sildenafil (VASP phosphorylation) [1]: equally potent as the parent compound

Molecule: CCCc1nn(C)c2c(=O)[nH]c(-c3cc(S(=O)(=O)N4CCN(C)CC4)ccc3OCC)nc12 [sildenafil, reference compound]
- total Ki67 positive cells in colon epithelium [2]: 15%

Molecule: CCCc1nn(C)c2c(=O)[nH]c(-c3cc(S(=O)(=O)N4CCNCC4)ccc3OCC)nc12 [desmethyl-sildenafil, reference compound]
- entry from the gut into plasma, dose curve [3]: increased dramatically in the plasma
